Experimental data from PubChem BioAssay (NCI).
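In this assay, cells in 96-well plates receive the compound at five concentrations for 48 hours. Endpoints are linearly interpolated between the surrounding concentrations. TGI: concentration producing complete growth inhibition.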

Tests used:
Assay in all cases: inhibition of tumour cell growth, NCI panel, 48 h
[1] = system: HCT-15 colon
[2] = system: UACC-257 melanoma
[3] = system: LOX IMVI melanoma
[4] = system: MOLT-4 leukemia
[5] = system: SF-295 CNS
[6] = system: HCC-2998 colon
[7] = system: U251 CNS
[8] = system: CAKI-1 renal
[9] = system: SR leukemia
[10] = system: HT29 colon
[11] = system: SK-OV-3 ovarian
[12] = system: 786-0 renal
[13] = system: SF-539 CNS
[14] = system: SNB-75 CNS
[15] = system: A498 renal
[16] = system: ACHN renal
[17] = system: SK-MEL-28 melanoma
[18] = system: COLO 205 colon
[19] = system: MDA-MB-435
[20] = system: DU-145 prostate
[21] = system: UO-31 renal
[22] = system: UACC-62 melanoma
[23] = system: HOP-92 NSCLC
[24] = system: HL-60(TB) leukemia
[25] = system: A549 NSCLC
[26] = system: SK-MEL-5 melanoma
[27] = system: MCF7 breast
[28] = system: RXF 393 renal
[29] = system: MALME-3M melanoma
[30] = system: NCI-H522 lung
[31] = system: HS 578T breast
[32] = system: BT-549 breast
[33] = system: NCI-H460 lung
[34] = system: HCT-116 colon
[35] = system: MDA-N
[36] = system: SNB-19 CNS
[37] = system: SK-MEL-2 melanoma
[38] = system: OVCAR-8 ovarian
[39] = system: TK-10 renal
[40] = system: NCI/ADR-RES ovarian
[41] = system: OVCAR-5 ovarian
[42] = system: OVCAR-3 ovarian
[43] = system: MDA-MB-231 breast
[44] = system: RPMI-8226 leukemia
[45] = system: EKVX NSCLC
[46] = system: SW-620 colon
[47] = system: T-47D breast
[48] = system: NCI-H23 lung
[49] = system: K-562 leukemia
[50] = system: PC-3 prostate
[51] = system: SN12C renal
[52] = system: M14 melanoma
[53] = system: OVCAR-4 ovarian
[54] = system: HOP-62 NSCLC
[55] = system: NCI-H226 lung
[56] = system: SF-268 CNS
[57] = system: CCRF-CEM leukemia
[58] = system: KM12 colon
[59] = system: IGROV1 ovarian

## CC(C)Oc1cccc(N2C(CCc3c[nH]c4ccc(Br)cc34)=NS(=O)(=O)c3cnccc32)c1
[1]
  TGI: > 100 µM
[2]
  TGI: > 100 µM
[3]
  TGI: > 100 µM
[4]
  TGI: 92 µM
[5]
  TGI: > 100 µM
[6]
  TGI: > 100 µM
[7]
  TGI: > 100 µM
[8]
  TGI: > 100 µM
[9]
  TGI: > 100 µM
[10]
  TGI: > 100 µM
[11]
  TGI: > 100 µM
[12]
  TGI: > 100 µM
[13]
  TGI: > 100 µM
[14]
  TGI: > 100 µM
[15]
  TGI: > 100 µM
[16]
  TGI: > 100 µM
[17]
  TGI: > 100 µM
[18]
  TGI: 41.9 µM
[19]
  TGI: > 100 µM
[20]
  TGI: > 100 µM
[21]
  TGI: > 100 µM
[22]
  TGI: > 100 µM
[23]
  TGI: > 100 µM
[24]
  TGI: > 100 µM
[25]
  TGI: > 100 µM
[26]
  TGI: > 100 µM
[27]
  TGI: > 100 µM
[28]
  TGI: > 100 µM
[29]
  TGI: > 100 µM
[30]
  TGI: > 100 µM
[31]
  TGI: > 100 µM
[32]
  TGI: > 100 µM
[33]
  TGI: > 100 µM
[34]
  TGI: > 100 µM
[35]
  TGI: > 100 µM
[36]
  TGI: > 100 µM
[37]
  TGI: > 100 µM
[38]
  TGI: > 100 µM
[39]
  TGI: > 100 µM
[40]
  TGI: > 100 µM
[41]
  TGI: > 100 µM
[42]
  TGI: > 100 µM
[43]
  TGI: > 100 µM
[44]
  TGI: > 100 µM
[45]
  TGI: > 100 µM
[46]
  TGI: > 100 µM
[47]
  TGI: > 100 µM
[48]
  TGI: > 100 µM
[49]
  TGI: > 100 µM
[50]
  TGI: > 100 µM
[51]
  TGI: > 100 µM
[52]
  TGI: > 100 µM
[53]
  TGI: > 100 µM
[54]
  TGI: > 100 µM
[55]
  TGI: 97.8 µM
[56]
  TGI: > 100 µM
[57]
  TGI: > 100 µM
[58]
  TGI: > 100 µM

## COc1cc2c(cc1O)C(Cc1ccc(OCc3ccccc3)c(OCc3ccccc3)c1)N(C(=O)NCCc1ccccc1)CC2 (stereo unspecified)
[1]
  TGI: > 100 µM
[59]
  TGI: > 100 µM
[2]
  TGI: > 100 µM
[3]
  TGI: > 100 µM
[4]
  TGI: > 100 µM
[5]
  TGI: > 100 µM
[6]
  TGI: > 100 µM
[7]
  TGI: > 100 µM
[8]
  TGI: > 100 µM
[9]
  TGI: > 100 µM
[10]
  TGI: > 100 µM
[11]
  TGI: > 100 µM
[12]
  TGI: > 100 µM
[13]
  TGI: > 100 µM
[14]
  TGI: > 100 µM
[15]
  TGI: > 100 µM
[16]
  TGI: > 100 µM
[18]
  TGI: > 100 µM
[19]
  TGI: > 100 µM
[20]
  TGI: > 100 µM
[21]
  TGI: > 100 µM
[22]
  TGI: > 100 µM
[23]
  TGI: > 100 µM
[24]
  TGI: > 100 µM
[25]
  TGI: > 100 µM
[26]
  TGI: > 100 µM
[27]
  TGI: > 100 µM
[28]
  TGI: > 100 µM
[29]
  TGI: > 100 µM
[30]
  TGI: 72.9 µM
[31]
  TGI: > 100 µM
[32]
  TGI: > 100 µM
[33]
  TGI: > 100 µM
[34]
  TGI: > 100 µM
[35]
  TGI: > 100 µM
[36]
  TGI: > 100 µM
[37]
  TGI: > 100 µM
[38]
  TGI: > 100 µM
[39]
  TGI: > 100 µM
[40]
  TGI: > 100 µM
[41]
  TGI: > 100 µM
[42]
  TGI: > 100 µM
[43]
  TGI: > 100 µM
[44]
  TGI: > 100 µM
[45]
  TGI: > 100 µM
[46]
  TGI: > 100 µM
[47]
  TGI: > 100 µM
[48]
  TGI: > 100 µM
[49]
  TGI: > 100 µM
[50]
  TGI: > 100 µM
[51]
  TGI: > 100 µM
[52]
  TGI: > 100 µM
[53]
  TGI: > 100 µM
[54]
  TGI: > 100 µM
[55]
  TGI: > 100 µM
[56]
  TGI: > 100 µM
[57]
  TGI: > 100 µM
[58]
  TGI: > 100 µM
